Reference: the supplement of paper PMC10307832

How the values were obtained:
Assay in all cases: relative viability (nuclei count vs DMSO), 5 days (fraction); higher = more cells survive
ABC-1 = system: ABC-1
Procedure, shortened: (§1)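 A single step with final 0.05% Triton X-100, 1% formaldehyde and 1 ug/ml Hoechst fixed the cells and stained nuclei 5 days after treatment. Lung cancer cell lines in 1536-well plates had been treated by pin tool the day after seeding with one drug alone or a fixed anchor-drug dose plus five library-drug doses (not always all listed) in √10 steps, and nuclei were counted on 4× images. Relative viability is the ratio of nuclei in treated wells to nuclei in vehicle wells, taken as the median of duplicate plates.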

CAL-12T = system: CAL-12T
Procedure, shortened: as §1

COR-L 105 = system: COR-L 105
Procedure, shortened: as §1

ChaGo-K-1 = system: ChaGo-K-1
Procedure, shortened: as §1

EMC-BAC-2 = system: EMC-BAC-2
Procedure, shortened: as §1

EPLC-272H = system: EPLC-272H
Procedure, shortened: as §1

HCC-15 = system: HCC-15
Procedure, shortened: as §1

HOP-62 = system: HOP-62
Procedure, shortened: as §1

LXF-289 = system: LXF-289
Procedure, shortened: as §1

NCI-H1666 = system: NCI-H1666
Procedure, shortened: as §1

NCI-H1755 = system: NCI-H1755
Procedure, shortened: as §1

NCI-H1915 = system: NCI-H1915
Procedure, shortened: as §1

NCI-H1975 = system: NCI-H1975
Procedure, shortened: as §1

NCI-H2023 = system: NCI-H2023
Procedure, shortened: as §1

NCI-H2085 = system: NCI-H2085
Procedure, shortened: as §1

NCI-H2126 = system: NCI-H2126
Procedure, shortened: as §1

NCI-H3122 = system: NCI-H3122
Procedure, shortened: as §1

NCI-H322M = system: NCI-H322M
Procedure, shortened: as §1

NCI-H358 = system: NCI-H358
Procedure, shortened: as §1

NCI-H441 = system: NCI-H441
Procedure, shortened: as §1

UMC-11 = system: UMC-11
Procedure, shortened: as §1

Q: Which results are given for `O=c1cc(-c2cccc3c2Sc2ccccc2S3)oc(N2CCOCC2)c1` + CCNC(=O)c1noc(-c2cc(C(C)C)c(O)cc2O)c1-c1ccc(CN2CCOCC2)cc1 [Luminespib] (partner 0.01 µM)?
A: relative viability (ABC-1; first compound 0.08 µM): 0.535; relative viability (ABC-1; first compound 0.253 µM): 0.275; relative viability (ABC-1; first compound 0.8 µM): 0.91; relative viability (ABC-1; first compound 2.53 µM): 0.529; relative viability (ABC-1; first compound 8 µM): 0.532; relative viability (CAL-12T; first compound 0.08 µM): 0.277; relative viability (CAL-12T; first compound 0.253 µM): 0.708; relative viability (CAL-12T; first compound 0.8 µM): 0.506; relative viability (CAL-12T; first compound 2.53 µM): 0.299; relative viability (CAL-12T; first compound 8 µM): 0.207; relative viability (COR-L 105; first compound 0.08 µM): 0.701; relative viability (COR-L 105; first compound 0.253 µM): 0.762; relative viability (COR-L 105; first compound 0.8 µM): 0.705; relative viability (COR-L 105; first compound 2.53 µM): 0.671; relative viability (COR-L 105; first compound 8 µM): 1.02; relative viability (ChaGo-K-1; first compound 0.08 µM): 0.533; relative viability (ChaGo-K-1; first compound 0.253 µM): 0.763; relative viability (ChaGo-K-1; first compound 0.8 µM): 0.658; relative viability (ChaGo-K-1; first compound 2.53 µM): 0.67; relative viability (ChaGo-K-1; first compound 8 µM): 0.548; relative viability (EMC-BAC-2; first compound 0.08 µM): 1.16; relative viability (EMC-BAC-2; first compound 0.253 µM): 1.31; relative viability (EMC-BAC-2; first compound 0.8 µM): 1.13; relative viability (EMC-BAC-2; first compound 2.53 µM): 1.18; relative viability (EMC-BAC-2; first compound 8 µM): 1.27; relative viability (EPLC-272H; first compound 0.08 µM): 0.182; relative viability (EPLC-272H; first compound 0.253 µM): 0.405; relative viability (EPLC-272H; first compound 0.8 µM): 0.431; relative viability (EPLC-272H; first compound 2.53 µM): 0.146; relative viability (EPLC-272H; first compound 8 µM): 0.292; relative viability (HCC-15; first compound 0.08 µM): 0.206; relative viability (HCC-15; first compound 0.253 µM): 0.207; relative viability (HCC-15; first compound 0.8 µM): 0.373; relative viability (HCC-15; first compound 2.53 µM): 0.242; relative viability (HCC-15; first compound 8 µM): 0.276; relative viability (HOP-62; first compound 0.08 µM): 1.06; relative viability (HOP-62; first compound 0.253 µM): 1.04; relative viability (HOP-62; first compound 0.8 µM): 1.03; relative viability (HOP-62; first compound 2.53 µM): 0.983; relative viability (HOP-62; first compound 8 µM): 1.02; relative viability (LXF-289; first compound 0.08 µM): 0.607; relative viability (LXF-289; first compound 0.253 µM): 0.764; relative viability (LXF-289; first compound 0.8 µM): 0.636; relative viability (LXF-289; first compound 2.53 µM): 0.69; relative viability (LXF-289; first compound 8 µM): 0.765; relative viability (NCI-H1666; first compound 0.08 µM): 1.01; relative viability (NCI-H1666; first compound 0.253 µM): 1.09; relative viability (NCI-H1666; first compound 0.8 µM): 1.01; relative viability (NCI-H1666; first compound 2.53 µM): 1.06; relative viability (NCI-H1666; first compound 8 µM): 1.17; relative viability (NCI-H1755; first compound 0.08 µM): 0.425; relative viability (NCI-H1755; first compound 0.253 µM): 0.614; relative viability (NCI-H1755; first compound 0.8 µM): 0.378; relative viability (NCI-H1755; first compound 2.53 µM): 0.641; relative viability (NCI-H1755; first compound 8 µM): 0.5; relative viability (NCI-H1915; first compound 0.08 µM): 0.968; relative viability (NCI-H1915; first compound 0.253 µM): 0.827; relative viability (NCI-H1915; first compound 0.8 µM): 0.911; relative viability (NCI-H1915; first compound 2.53 µM): 0.775; relative viability (NCI-H1915; first compound 8 µM): 0.769; relative viability (NCI-H1975; first compound 0.08 µM): 0.121; relative viability (NCI-H1975; first compound 0.253 µM): 0.167; relative viability (NCI-H1975; first compound 0.8 µM): 0.15; relative viability (NCI-H1975; first compound 2.53 µM): 0.231; relative viability (NCI-H1975; first compound 8 µM): 0.169; relative viability (NCI-H2023; first compound 0.08 µM): 0.58; relative viability (NCI-H2023; first compound 0.253 µM): 0.949; relative viability (NCI-H2023; first compound 0.8 µM): 0.601; relative viability (NCI-H2023; first compound 2.53 µM): 0.856; relative viability (NCI-H2023; first compound 8 µM): 0.499; relative viability (NCI-H2085; first compound 0.08 µM): 0.408; relative viability (NCI-H2085; first compound 0.253 µM): 0.526; relative viability (NCI-H2085; first compound 0.8 µM): 0.39; relative viability (NCI-H2085; first compound 2.53 µM): 0.437; relative viability (NCI-H2085; first compound 8 µM): 0.354; relative viability (NCI-H2126; first compound 0.08 µM): 0.791; relative viability (NCI-H2126; first compound 0.253 µM): 1; relative viability (NCI-H2126; first compound 0.8 µM): 0.963; relative viability (NCI-H2126; first compound 2.53 µM): 0.822; relative viability (NCI-H2126; first compound 8 µM): 0.836; relative viability (NCI-H3122; first compound 0.08 µM): 0.109; relative viability (NCI-H3122; first compound 0.253 µM): 0.102; relative viability (NCI-H3122; first compound 0.8 µM): 0.111; relative viability (NCI-H3122; first compound 2.53 µM): 0.0685; relative viability (NCI-H3122; first compound 8 µM): 0.106; relative viability (NCI-H322M; first compound 0.08 µM): 0.711; relative viability (NCI-H322M; first compound 0.253 µM): 0.824; relative viability (NCI-H322M; first compound 0.8 µM): 0.823; relative viability (NCI-H322M; first compound 2.53 µM): 0.769; relative viability (NCI-H322M; first compound 8 µM): 0.849; relative viability (NCI-H358; first compound 0.08 µM): 0.154; relative viability (NCI-H358; first compound 0.253 µM): 0.388; relative viability (NCI-H358; first compound 0.8 µM): 0.329; relative viability (NCI-H358; first compound 2.53 µM): 0.375; relative viability (NCI-H358; first compound 8 µM): 0.292; relative viability (NCI-H441; first compound 0.08 µM): 0.331; relative viability (NCI-H441; first compound 0.253 µM): 0.314; relative viability (NCI-H441; first compound 0.8 µM): 0.35; relative viability (NCI-H441; first compound 2.53 µM): 0.407; relative viability (NCI-H441; first compound 8 µM): 0.281; relative viability (UMC-11; first compound 0.08 µM): 1.07; relative viability (UMC-11; first compound 0.253 µM): 1.22; relative viability (UMC-11; first compound 0.8 µM): 1.19; relative viability (UMC-11; first compound 2.53 µM): 1.25; relative viability (UMC-11; first compound 8 µM): 1.34
